Converted amounts (≈) assume the structure as drawn. Like-named read-outs stand apart in the source and are kept apart here.
What was measured:
[1] = test system: Multidrug-Resistant (MDR) S. aureus; experiment: microbe, parasite or virus in culture; details: 24 h; for MIC: Staphylococcus aureus
Protocol: (§1) We further evaluated analogue 12 against multidrug-resistant (MDR) strains of S. aureus (acquired from the NARSA collection) and MDR E. faecium (acquired from International Health Management Associates, IHMA, Europe Sarl), comparing its activity to various classes of clinically used antibiotics (Table ).
(§2) MICs were performed as previously reported 4. For MIC testing all peptides were dissolved in DMSO.
(§3) Bacterial cultures were grown overnight on Mueller-Hinton Agar (MHA) plates and adjusted to a final inoculum of 10^5 – 10^6 CFU/mL. 100 µl of ino culum in Meuller -Hinton broth (MHB) was mixed with equal volume of peptides (dissolved in MHB) at 2x their concentration in a 96 well plate . For daptomycin MIC determination, the same protocol was followed with the addition of 50 mg/L calcium chloride to the medium. MIC values were determined in the media contain ing polysorbate 80 (0.002%, v/v) to prevent non -specific adsorption of the peptides to plastic surfaces. The final peptides concentrations ranged from 0.0625 – 32 µg/mL. The 96 well plates were then incubated at 37 °C for 24 h. All the experiments were performed in two independent duplicates and the MIC was determined as the lowest concentration in which no visible growth was observed.
(§4) Antibiotics MIC break points ( µg/mL)
(§5) Table. S4: Susceptibility cut-off values (MIC breakpoints) for various clinical antibiotics. […]

[2] = test system: Multidrug-Resistant (MDR) E. faecium; experiment: microbe, parasite or virus in culture; details: 24 h; for MIC: Enterococcus faecium
Protocol: as §1, §2, §3, §4, §5

[3] = test system: MRSA ATCC 33591; experiment: microbe, parasite or virus in culture; type: cell-based, Staphylococcus aureus; details: Staphylococcus aureus, 24 h, read-out: MIC against MRSA ATCC 33591
Protocol: as §2
as §3, with “observed. […]” for “observed.”

[4] = test system: MRSA ATCC 33591; experiment: Time-kill kinetics; type: cell-based, Staphylococcus aureus; details: 5 μg/mL, MHB with 0.002% polysorbate 80, 37 °C, two independent experiments in duplicate
Protocol: Early-stage time-kill kinetics for analogue 12 against MRSA ATCC 33591 were performed using vancomycin as a control, following the protocol described in Section VIII, Supporting Information.
3 Time-kill kinetics of Novltex analogue 12 and clinical antibiotic (vancomycin) against MRSA 33591. […] Results are the mean ± SD of two independent experiments performed in duplicate.
as §2, §3, §4
Table. […]

[5] = Lipid II binding, spot-on-lawn assays on S. aureus ATCC 33591; set-up: species or system Staphylococcus aureus; details: lipid II (300 μM, 2 μL) at the edge of the antibiotic halo, overnight 37 °C, duplicates
From the text: 6 Spot-on-lawn assays to evaluate binding of Lipid II with analogue 12 on S. aureus ATCC 33591. (A) Analogue 12 was premixed with increasing ratios of lipid II (0.5 to 4 equiv) and spotted onto a seeded lawn of S. aureus 33591. Lipid II and analogue 12 were also spotted independently. The position of the analogue 12–lipid II mixture is marked in red. (B) Daptomycin was used as a negative control. Asterisks denote the positions of analogue 12 (black), lipid II (blue), and daptomycin (green) additions.
Analogue 12 was premixed with increasing ratios of lipid II (0.5 to 4 equiv) for 10 min prior to spotting onto agar plates seeded with a lawn of S. aureus ATCC 33591 and incubated overnight.
XII. Lipid II binding determination of analogue 12
Previously reported methods were used to determine the lipid II binding of analogue 126,7. The lipid II used in this study was prepared by chemical synthesis and its preparation and purification has been […]
A: An overnight culture of S. aureus ATCC 33591 was added to LB agar (45 °C) at a final concentration of 0.1% (vol/vol) and pour-plated into 90 mm petri dishes. Binding of 12 to purified lipid II was assessed using a spot-on-lawn assay. Premixed solutions (5 µL) containing analogue 12 (8 µg) with varying concentration of lipid II were spotted onto the agar, alongside individual controls of 12 and lipid II.
After drying, plates were incubated overnight at 37 °C. This assay was performed in duplicates.
B: To assess the interaction between analogue 12 and lipid II, a culture of S. aureus ATCC 33591 was grown overnight in LB broth and inoculated into LB agar at a final concentration of 1% (v/v) at 45°C.
This mixture was evenly distributed into 90mm petri dishes. Antibiotic inhibition haloes were previously determined by spotting analogue 12 and daptomycin (5 μL,8 µg/mL) onto agar plates and measuring the diameter of the halo after overnight incubation at 37 °C . The binding affinity of analogue 12 and lipid II was later examined by applying purified lipid II (300 μM, 2 μL) to the edge of the antibiotic halo. Analogue 12 and Daptomycin were applied to the inoculated agar plate at a spaced distance, once the antimicrobial solution drops had dried, lipid II was spotted on the edge of the inhibition halo. The plates were then incubated overnight at 37 °C. […]

| Compound | MIC ([1]; read-out: MIC, Staphylococcus aureus NR 45914) [µg/mL] | MIC ([1]; read-out: MIC, Staphylococcus aureus NR 45926) [µg/mL] | MIC ([1]; read-out: MIC, Staphylococcus aureus NR 45930) [µg/mL] | MIC ([1]; read-out: MIC, Staphylococcus aureus NR 46062) [µg/mL] | MIC ([2]; read-out: MIC, Enterococcus faecium 1563254) [µg/mL] | MIC ([2]; read-out: MIC, Enterococcus faecium 1581582) [µg/mL] | MIC ([2]; read-out: MIC, Enterococcus faecium 1766686) [µg/mL] | MIC [3] [µg/mL] | time to similar bacterial killing [4] [h] | halo distortion on addition of lipid II [5] | MIC, Staphylococcus aureus NR 45914 ([1]; MDR strain NR 45914, MHB, 0.002% polysorbate 80, 37 °C, daptomycin with 50 mg/L calcium chloride) [µg/mL] | MIC, Staphylococcus aureus NR 45926 ([1]; MDR strain NR 45926, MHB, 0.002% polysorbate 80, 37 °C, daptomycin with 50 mg/L calcium chloride) [µg/mL] | MIC, Staphylococcus aureus NR 45930 ([1]; MDR strain NR 45930, MHB, 0.002% polysorbate 80, 37 °C, daptomycin with 50 mg/L calcium chloride) [µg/mL] | MIC, Staphylococcus aureus NR 46062 ([1]; MDR strain NR 46062, MHB, 0.002% polysorbate 80, 37 °C, daptomycin with 50 mg/L calcium chloride) [µg/mL] | MIC, Enterococcus faecium 1563254 ([2]; MDR clinical isolate 1563254, MHB, 0.002% polysorbate 80, 37 °C, daptomycin with 50 mg/L calcium chloride) [µg/mL] | MIC, Enterococcus faecium 1581582 ([2]; MDR clinical isolate 1581582, MHB, 0.002% polysorbate 80, 37 °C, daptomycin with 50 mg/L calcium chloride) [µg/mL] | MIC, Enterococcus faecium 1766686 ([2]; MDR clinical isolate 1766686, MHB, 0.002% polysorbate 80, 37 °C, daptomycin with 50 mg/L calcium chloride) [µg/mL] |
| --- | --- | --- | --- | --- | --- | --- | --- | --- | --- | --- | --- | --- | --- | --- | --- | --- | --- |
| CN[C@H](CC(C)C)C(=O)N[C@H]1C(=O)N[C@@H](CC(N)=O)C(=O)N[C@H]2C(=O)N[C@H]3C(=O)N[C@H](C(=O)N[C@H](C(=O)O)c4cc(O)cc(O)c4-c4cc3ccc4O)[C@H](O)c3ccc(c(Cl)c3)Oc3cc2cc(c3O[C@@H]2O[C@H](CO)[C@@H](O)[C@H](O)[C@H]2O[C@H]2C[C@](C)(N)[C@H](O)[C@H](C)O2)Oc2ccc(cc2Cl)[C@H]1O [Vancomycin] | 1 (≈ 0.69 µM) | 0.5 (≈ 0.345 µM) | 1 (≈ 0.69 µM) | 2 (≈ 1.38 µM) | > 32 | > 32 | > 32 | 0.5 to 1 (≈ 0.345 to 0.69 µM) | 24 |  |  |  |  |  |  |  |  |
| CCCCCCCCCC(=O)N[C@@H](Cc1c[nH]c2ccccc12)C(=O)N[C@H](CC(N)=O)C(=O)N[C@@H](CC(=O)O)C(=O)N[C@@H]1C(=O)NCC(=O)N[C@@H](CCCN)C(=O)N[C@@H](CC(=O)O)C(=O)N[C@H](C)C(=O)N[C@@H](CC(=O)O)C(=O)NCC(=O)N[C@H](CO)C(=O)N[C@@H]([C@H](C)CC(=O)O)C(=O)N[C@@H](CC(=O)c2ccccc2N)C(=O)O[C@@H]1C [Daptomycin] |  |  |  |  |  |  |  |  |  | maintained a distinct circular inhibition zone | 2 (≈ 1.23 µM) | 4 (≈ 2.47 µM) | 2 (≈ 1.23 µM) | 2 (≈ 1.23 µM) | >32 | >32 | >32 |

Reference: PMC12481569, “Novltex: A New Class of Antibiotics with Potent Activity against Multidrug-Resistant Bacterial Pathogens–Design, Synthesis, and Biological Evaluation” (Journal of Medicinal Chemistry, 2025)
